Test results: patent publication US20100184711A1, “Alpha-GLYCOSYL THIOLS AND alpha-S-LINKED GLYCOLIPIDS” (UNIVERSITY COLLEGE DUBLIN, NATIONAL UNIVERSITY OF IRELAND, …, priority 2008, published 2010)

System: iNKT cells
Assay: iNKT cells co-cultured with CD1d+ cells, cytokine release
Assay type: cell-based
Experimental: iNKT cells were treated with an α-S-linked galactosylceramide (alpha-GalCer) to determine immunostimulatory activity. FIGS. 4 and 5 show the amounts of interferon-gamma and IL-4 released (expressed as a fold-increase over the levels produced in responses to the mock-transfected cells alone) in 5 experiments. Cytokine was released when iNKT cells were co-cultured with CD1d+ cells in the absence of added glycolipid (second bar). This was enhanced for both cytokines when alpha-GalCer was added and blocked using an antibody specific for CD1d.

[1] = iNKT cells co-cultured with CD1d+ cells, compared with no added glycolipid, 5 experiments, FIGS. 4 and 5

CCCCCCCCCCCCCCCCCCCCCCCCCC(=O)N[C@@H](CO[C@H]1O[C@H](CO)[C@H](O)[C@H](O)[C@H]1O)[C@H](O)[C@H](O)CCCCCCCCCCCCCC [alpha-GalCer]
effect of antibody specific for CD1d on glycolipid-induced cytokine release (iNKT cells co-cultured with CD1d+ cells plus anti-CD1d antibody, both cytokines): blocked | IL-4 released (fold-increase over the levels produced in response to mock-transfected cells alone) [1]: enhanced | interferon-gamma released (fold-increase over the levels produced in response to mock-transfected cells alone) [1]: enhanced
